Experiment [1] has as its system nightshade (eastern black nightshade, Solanum ptycanthum). Put plainly: Test E pre-/postemergence: nightshade. Type of experiment: in vivo. The following applies: Preemergence, scale 0 to 100. From the text:
(§1) Seeds of plant species selected from corn (Zea mays), soybean (Glycine max), velvetleaf (Abutilon theophrasti), lambsquarters (Chenopodium album), poinsettia, wild (wild poinsettia, Euphorbia heterophylla), pigweed, palmer (palmer pigweed, Amaranthus palmeri), waterhemp (common waterhemp, Amaranthus rudis), smartweed (ladysthumb smartweed, Polygonum persicaria), surinam grass (Brachiaria decumbens), crabgrass, large (large crabgrass, Digitaria sanguinalis), crabgrass, Brazil (Brazilian crabgrass, Digitaria horizontalis), panicum, fall (fall panicum, Panicum dichotomiflorum), foxtail, giant (giant foxtail, Setaria faberii), foxtail, green (green foxtail, Setaria viridis), goosegrass (Eleusine indica), johnsongrass (Sorghum halepense), ragweed (common ragweed, Ambrosia elation), barnyardgrass (Echinochloa crus-galli), sandbur (southern sandbur, Cenchrus echinatus), arrowleaf sida (Sida rhombifolia), ryegrass, Italian (Italian ryegrass, Lolium multiflorum), dayflower, (VA) (Virginia dayflower, Commelina virginica), field bindweed (Convolvulus arvensis), cocklebur (common cocklebur, Xanthium strumarium), morningglory (Ipomoea coccinea), nightshade (eastern black nightshade, Solanum ptycanthum), kochia (Kochia scoparia), nutsedge, yellow (yellow nutsedge, Cyperus esculentus) and beggarticks (hairy beggarticks, Bidens pilosa) were planted into a silt loam soil and treated preemergence with test chemicals formulated in a non-phytotoxic solvent mixture which included a surfactant. At the same time, plants selected from these crop and weed species were planted in pots containing a growing medium comprising spaghnum peat moss, vermiculite, wetting agent and starter nutrients and treated with postemergence applications of some of the test chemicals formulated in the same manner. Plants ranged in height from 2 to 18 cm for postemergence treatments (1- to 4-leaf stage).
(§2) Treated plants and controls were maintained in a greenhouse for 14 to 21 days, after which time all species were compared to controls and visually evaluated. Plant response ratings, summarized in Table E, are based on a scale of 0 to 100 where 0 is no effect and 100 is complete control. A dash (-) response means no test result.

In experiment [2] the test system is goosegrass (Eleusine indica). Put plainly: Test E pre-/postemergence: goosegrass. Type of experiment: in vivo. The following applies: Preemergence, scale 0 to 100.
Description: as §1, §2

The test system of experiment [3] is waterhemp (common waterhemp, Amaranthus rudis). Put plainly: Test E pre-/postemergence: waterhemp. Type of experiment: in vivo. As to conditions: scale 0 to 100.
Description: as §1, §2

The subject of experiment [4] is ragweed (common ragweed, Ambrosia elation). Put plainly: Test E pre-/postemergence: ragweed. Type of experiment: in vivo. The following applies: Preemergence, scale 0 to 100.
Description: as §1, §2

In experiment [5] the test system is ryegrass, Italian (Italian ryegrass, Lolium multiflorum). Put plainly: Test F pre-/postemergence: ryegrass, Italian. Type of experiment: in vivo.
Description: (§3) Seeds of plant species selected from corn (Zea mays), soybean (Glycine max), velvetleaf (Abutilon theophrasti), lambsquarters (Chenopodium album), poinsettia, wild (wild poinsettia, Euphorbia heterophylla), pigweed, palmer (palmer pigweed, Amaranthus palmeri), waterhemp (common waterhemp, Amaranthus rudis), surinam grass (Brachiaria decumbens), crabgrass, Brazil (Brazilian crabgrass, Digitaria horizontalis), panicum, fall (fall panicum Panicum dichotomiflorum), crabgrass, large (large crabgrass, Digitaria sanguinalis), foxtail, giant (giant foxtail, Setaria faberii), foxtail, green (green foxtail Setaria viridis), goosegrass (Eleusine indica), ragweed (common ragweed, Ambrosia elatior), barnyardgrass (Echinochloa crus-galli), sandbur (southern sandbur, Cenchrus echinatus), arrowleaf sida (Sida rhombifolia), ryegrass, Italian (Italian ryegrass, Lolium multiflorum), dayflower, VA (Virginia (VA) dayflower, Commelina virginica), field bindweed (Convolvulus arvensis), cocklebur (common cocklebur, Xanthium strumarium), morningglory (Ipomoea coccinea), nightshade (eastern black nightshade, Solanum ptycanthum), kochia (Kochia scoparia), nutsedge, yellow (yellow nutsedge, Cyperus esculentus), johnsongrass (Sorghum halepense), smartweed (ladysthumb smartweed, Polygonum persicaria), and beggarticks (hairy beggarticks, Bidens pilosa), were planted into a silt loam soil and treated preemergence with test chemicals formulated in a non-phytotoxic solvent mixture which included a surfactant. At the same time, plants selected from these crop and weed species and also pigweed (Amaranthus retroflexus), waterhemp_RES1 (ALS/Triazine resistant common waterhemp, Amaranthus rudis) and waterhemp_RES2 (ALS/HPPD resistant common waterhemp, Amaranthus rudis) were planted in pots containing a planting medium comprising spaghnum peat moss, vermiculite, wetting agent and starter nutrients treated with postemergence applications of some of the test chemicals formulated in the same manner. Plants ranged in height from 2 to 18 cm for postemergence treatments (1- to 4-leaf stage).
as §2

The subject of experiment [6] is poinsettia, wild (wild poinsettia, Euphorbia heterophylla). Put plainly: Test F pre-/postemergence: poinsettia, wild. The class given is in vivo. As to conditions: Preemergence.
Description: as §3, §2

In experiment [7] the test system is sandbur (southern sandbur, Cenchrus echinatus). Put plainly: Test F pre-/postemergence: sandbur. The class given is in vivo.
Description: as §3, §2

Experiment [8] deals with Oilseed Rape. Put plainly: Test C preemergence: oilseed rape. The class given is in vivo, Brassica napus. As to conditions: 125 g ai/ha, scale 0 to 100, 0 no effect, 100 complete control.
Experiment [9] relates to Oilseed Rape. Put plainly: Test C postemergence: oilseed rape. Type of experiment: in vivo. From the text:
At the same time, plants selected from these crop and weed species and also barley (winter barley, Hordeum vulgare), canarygrass (Phalaris minor), chickweed (common chickweed, Stellaria media) windgrass (Apera spica-venti) and deadnettle (henbit deadnettle, Lamium amplexicaule) were planted in pots containing Redi-Earth® planting medium (Scotts Company, 14111 Scottslawn Road, Marysville, Ohio 43041) comprising spaghnum peat moss, vermiculite, wetting agent and starter nutrients and treated with postemergence applications of test chemicals formulated in the same manner. Plants ranged in height from 2 to 18 cm (1- to 4-leaf stage) for postemergence treatments.
Treated plants and controls were maintained in a greenhouse for 13 to 15 days, after which time all species were compared to controls and visually evaluated. Plant response ratings, summarized in Table C, are based on a scale of 0 to 100 where 0 is no effect and 100 is complete control. A dash (-) response means no test result.

[10] abbreviates: Preemergence, 16 g ai/ha, scale 0 to 100 (0 no effect, 100 complete control).
[11] abbreviates: Preemergence, 31 g ai/ha, scale 0 to 100 (0 no effect, 100 complete control).
Setting [12] is: Preemergence, 125 g ai/ha, scale 0 to 100.
Where [13] appears, read: Postemergence, 8 g ai/ha, scale 0 to 100.
The mark [14] stands for this setting: Postemergence, 16 g ai/ha, scale 0 to 100.
Where [15] appears, read: Postemergence, 31 g ai/ha, scale 0 to 100.
The mark [16] stands for this setting: Postemergence, 62 g ai/ha, scale 0 to 100.
The mark [17] stands for this setting: Postemergence, 125 g ai/ha, scale 0 to 100.
Setting [18] is: 62 g ai/ha, scale 0 to 100 (0 no effect, 100 complete control).

Structures are written as SMILES.

For `Cc1nn(-c2ccc(F)cc2)nc1Cc1ccnc(C(F)(F)F)c1` [Compound 16, 4-[[2-(4-fluorophenyl)-5-methyl-2H-1,2,3-triazol-4-yl]methyl]-2-(trifluoromethyl)pyridine], the “Plant response rating: Nightshade” value was found to be 0 in [1] (8 g ai/ha); 0 in experiment [1] (16 g ai/ha); 50 in experiment [1] (31 g ai/ha); 100 in experiment [1] (62 g ai/ha); 100 in experiment [1] (125 g ai/ha). The “Plant response rating: Goosegrass” value in experiment [2] (8 g ai/ha) came out at 40; in experiment [2] (16 g ai/ha), 40; in experiment [2] (31 g ai/ha), 98; in experiment [2] (62 g ai/ha), 100; in experiment [2] (125 g ai/ha), 100. Also, the “Plant response rating: Waterhemp” value is reported as 60 in experiment [3] (Preemergence, 8 g ai/ha); 70 in experiment [3] (Preemergence, 16 g ai/ha); 100 in experiment [3] (Preemergence, 31 g ai/ha); 100 in experiment [3] (Preemergence, 62 g ai/ha); 100 in experiment [3] (Preemergence, 125 g ai/ha). The “Plant response rating: Ragweed” value in experiment [4] (8 g ai/ha) came out at 0; in experiment [4] (16 g ai/ha) it was 0; in experiment [4] (31 g ai/ha), 0; in [4] (62 g ai/ha), 30; in experiment [4] (125 g ai/ha), 30.

Consider `Cc1nn(-c2ccc(C(F)(F)F)cc2)nc1Cc1ccnc(C(F)(F)F)c1` [Compound 47, 4-[[5-methyl-2-[4-(trifluoromethyl)phenyl]-2H-1,2,3-triazol-4-yl]methyl]-2-(trifluoromethyl)pyridine], for which the “Plant response rating: Nightshade” value in experiment [1] (31 g ai/ha) turned out to be 75; in [1] (62 g ai/ha) it was 98; in experiment [1] (125 g ai/ha), 98; in experiment [1] (250 g ai/ha), 98. Further, the “Plant response rating: Goosegrass” value in experiment [2] (16 g ai/ha), in experiment [2] (31 g ai/ha), in [2] (125 g ai/ha) and in experiment [2] (250 g ai/ha) was 100 throughout. The “Plant response rating: Waterhemp” value worked out at 95 in [3] (Postemergence, 250 g ai/ha); 60 in [3] (Postemergence, 16 g ai/ha); 70 in experiment [3] (Postemergence, 31 g ai/ha); 80 in [3] (Postemergence, 62 g ai/ha); 85 in experiment [3] (Postemergence, 125 g ai/ha); 100 in [3] (Preemergence, 16 g ai/ha). Besides, the “Plant response rating: Waterhemp” value in [3] (Preemergence, 31 g ai/ha) was 100; in [3] (Preemergence, 62 g ai/ha) it was 100; in experiment [3] (Preemergence, 125 g ai/ha), 100; in [3] (Preemergence, 250 g ai/ha), 100. Further, the “Plant response rating: Ragweed” value is 0 in experiment [4] (16 g ai/ha); 0 in experiment [4] (31 g ai/ha); 10 in experiment [4] (62 g ai/ha); 50 in experiment [4] (125 g ai/ha); 90 in experiment [4] (250 g ai/ha).

Take `Cc1nn(-c2ccc(F)cc2)nc1Oc1ccnc(C(F)(F)F)c1` [Compound 129, 4-[[2-(4-fluorophenyl)-5-methyl-2H-1,2,3-triazol-4-yl]oxy]-2-(trifluoromethyl)pyridine]: the “Plant response rating: Nightshade” value in experiment [1] (8 g ai/ha) is listed as 0; in experiment [1] (16 g ai/ha), 0; in experiment [1] (31 g ai/ha), 0; in experiment [1] (62 g ai/ha), 50; in [1] (125 g ai/ha), 60. In addition, the “Plant response rating: Goosegrass” value in experiment [2] (8 g ai/ha) stood at 40; in [2] (16 g ai/ha), 40; in experiment [2] (31 g ai/ha), 50; in experiment [2] (62 g ai/ha), 60; in experiment [2] (125 g ai/ha), 100. Moreover, the “Plant response rating: Waterhemp” value in experiment [3] (Preemergence, 8 g ai/ha) is 20; in [3] (Preemergence, 16 g ai/ha) it was 35; in experiment [3] (Preemergence, 31 g ai/ha), 80; in experiment [3] (Preemergence, 62 g ai/ha), 100; in [3] (Preemergence, 125 g ai/ha), 100. Also, the “Plant response rating: Ragweed” value in experiment [4] (8 g ai/ha) turned out to be 0; in experiment [4] (16 g ai/ha), 0; in experiment [4] (31 g ai/ha), 5; in [4] (62 g ai/ha), 20; in [4] (125 g ai/ha), 20.

`Fc1ccc(-n2nc(Cc3ccnc(C(F)(F)F)c3)c(OCC(F)(F)F)n2)cc1` [Compound 142]: the “Plant response rating, Ryegrass, Italian” value in experiment [5] (setting [10]) was found to be 5; in experiment [5] (setting [11]), 65; in experiment [5] (setting [12]), 100. Further, the “Plant response rating, Poinsettia, Wild” value is recorded as 0 in [6] (16 g ai/ha, scale 0 to 100 (0 no effect, 100 complete control)); 10 in experiment [6] (31 g ai/ha, scale 0 to 100 (0 no effect, 100 complete control)); 70 in experiment [6] (125 g ai/ha, scale 0 to 100). The “Plant response rating, Sandbur” value in experiment [7] (setting [10]) was determined as 5; in experiment [7] (setting [11]), 5; in experiment [7] (setting [12]), 70.

For the compound `Cc1nn(-c2ccc(F)c(F)c2)nc1Oc1ccnc(C(F)(F)F)c1` [Compound 145], the “Plant response rating, Ryegrass, Italian” value in [5] (setting [13]) stood at 5; in [5] (setting [14]), 10; in experiment [5] (setting [15]), 20; in experiment [5] (setting [16]), 30; in experiment [5] (setting [17]), 40. The “Plant response rating, Sandbur” value in experiment [7] (setting [13]) came out at 10; in experiment [7] (setting [14]) it was 20; in experiment [7] (setting [15]), 30; in [7] (setting [16]), 35; in [7] (setting [17]), 35.

Take `CCc1nn(-c2ccc(F)cc2)nc1Oc1ccnc(C(F)(F)F)c1` [Compound 166]: the “Plant response rating, Oilseed Rape” value in the experiment with Oilseed Rape [8] is recorded as 90; with Oilseed Rape [9] (setting [18]), 5; in the experiment on Oilseed Rape [9] (250 g ai/ha, scale 0 to 100) it was 40.

For the compound `CCCc1nn(-c2ccc(C(F)(F)F)c(F)c2)nc1Oc1ccnc(C(F)(F)F)c1` [Compound 185], the “Plant response rating, Oilseed Rape” value with Oilseed Rape [8] turned out to be 100; in the experiment on Oilseed Rape [9] (setting [18]) it was 50.

As to `CCOc1nn(-c2ccc(Br)cc2)nc1Cc1ccnc(C(F)(F)F)c1` [Compound 189], the “Plant response rating, Oilseed Rape” value in the experiment with Oilseed Rape [8] was found to be 85.

For the origin of these results see patent publication US9302999B2, “Substituted triazoles as herbicides” (E. I. DU PONT DE NEMOURS AND COMPANY, priority 2012, dated 2016).
